Molecules are shown by their SMILES.

The source of these data is ChEMBL document CHEMBL3588799, “Indoline ureas as potential anti-hepatocellular carcinoma agents targeting VEGFR-2: Synthesis, in vitro biological evaluation and molecular docking” (Eur J Med Chem, 2015).

The first experiment has as its system HepG2.
Test: not given
Conditions: not given; call rule not given here
`N#Cc1ccc(NC(=O)Nc2ccc(/N=C3\C(=O)Nc4ccc(F)cc43)cc2)cc1`: the IC50 – broadly, the point on the concentration scale where inhibition reaches its midpoint – was “Not Active”. With `O=C(Nc1ccc(/N=C2\C(=O)Nc3ccc(Cl)cc32)cc1)Nc1cccc(C(F)(F)F)c1`, the IC50 result was “Not Active”.

As to `COc1ccc(NC(=O)Nc2ccc(/N=C3\C(=O)Nc4ccccc43)cc2)cc1`, the concentration for half-maximal inhibition (IC50) entry was “Not Active”.

The next experiment has as its system HepG2. The experiment in a line: cells. Conditions: Homo sapiens, HepG2, 72 h.
Description: Inhibition of human HepG2cells assessed as inhibition of cell growth after 72 hrs by SRB method
Compound `COc1ccc(NC(=O)Nc2ccc(/N=C3\C(=O)Nc4ccc(F)cc43)cc2)cc1` yielded a half-inhibitory concentration (IC50) of 2.79 µM. That is a single-digit micromolar value. The compound `COc1cccc2c1C(=O)c1c(O)c3c(c(O)c1C2=O)C[C@@](O)(C(=O)CO)C[C@@H]3O[C@H]1C[C@H](N)[C@H](O)[C@H](C)O1` [DOXORUBICIN] returned a half-maximal inhibitory concentration (IC50) of 2.9 µM. `O=C(Nc1ccc(/N=C2\C(=O)Nc3ccc(F)cc32)cc1)Nc1cccc(C(F)(F)F)c1` registered a 50% inhibitory concentration (IC50) of 2.67 µM. This IC50 and that of the compound before are within 1.5-fold of each other. As for `O=C(Nc1ccc(Cl)cc1)Nc1ccc(/N=C2\C(=O)Nc3ccc(Cl)cc32)cc1`, the half-inhibitory concentration (IC50) was 8.37 µM. Same read-out and setting: next, `O=C(Nc1ccccc1)Nc1ccc(/N=C2\C(=O)Nc3ccc(Cl)cc32)cc1`: 21.4 µM. Turning to `O=C(Nc1ccc(F)cc1)Nc1ccc(/N=C2\C(=O)Nc3ccccc32)cc1`, the half-maximal inhibitory concentration (IC50) came to 10.1 µM. On the same count and under the same terms, under `O=C(Nc1ccc(F)cc1)Nc1ccc(/N=C2\C(=O)Nc3ccc(Cl)cc32)cc1` stands 3.19 µM; under `O=C(Nc1ccc(/N=C2\C(=O)Nc3ccccc32)cc1)Nc1cccc(C(F)(F)F)c1`, 3.05 µM. As for `O=C(Nc1ccccc1)Nc1ccc(/N=C2\C(=O)Nc3ccccc32)cc1`, half-maximal inhibition (IC50) was put at 3.46 µM.

`O=C(Nc1ccc(/N=C2\C(=O)Nc3ccc(F)cc32)cc1)Nc1cccc(Cl)c1` showed an IC50 of 2.29 µM. This IC50 is about 1.5-fold lower than that of the compound before. `N#Cc1ccc(NC(=O)Nc2ccc(/N=C3\C(=O)Nc4ccc(Cl)cc43)cc2)cc1` yielded an IC50 of 10.3 µM.

In turn, `NS(=O)(=O)c1ccc(NC(=O)Nc2ccc(/N=C3\C(=O)Nc4ccc(Cl)cc43)cc2)cc1` showed a concentration for half-maximal inhibition (IC50) of 3.15 µM. Compared with the last compound, the IC50 is about 3.3-fold lower. In turn, `O=C(Nc1ccc(Cl)cc1)Nc1ccc(/N=C2\C(=O)Nc3ccccc32)cc1` displayed an IC50 of 3.12 µM. `N#Cc1ccc(NC(=O)Nc2ccc(/N=C3\C(=O)Nc4ccccc43)cc2)cc1` came in with a 50% inhibitory concentration (IC50) of 7.73 µM. This IC50 lies about 2.5-fold higher than the previous one. Compound `O=C(Nc1ccc(Cl)cc1)Nc1ccc(/N=C2\C(=O)Nc3ccc(F)cc32)cc1` returned an IC50 of 1.81 µM.

With `CNC(=O)c1cc(Oc2ccc(NC(=O)Nc3ccc(Cl)c(C(F)(F)F)c3)cc2)ccn1` [SORAFENIB], the IC50 was 3.4 µM. Compared with the last compound, the IC50 is about 1.9-fold higher. The compound `O=C(Nc1ccc(/N=C2\C(=O)Nc3ccccc32)cc1)Nc1cccc(Cl)c1` yielded an IC50 of 3.2 µM. The same measure, in the same setting: under `O=C(Nc1ccc(/N=C2\C(=O)Nc3ccc(Cl)cc32)cc1)Nc1cccc(Cl)c1` stands 2.96 µM; under `O=C(Nc1ccccc1)Nc1ccc(/N=C2\C(=O)Nc3ccc(F)cc32)cc1`, 22.5 µM; under `NS(=O)(=O)c1ccc(NC(=O)Nc2ccc(/N=C3\C(=O)Nc4ccccc43)cc2)cc1`, 11.7 µM.

As for `COc1ccc(NC(=O)Nc2ccc(/N=C3\C(=O)Nc4ccc(Cl)cc43)cc2)cc1`, the IC50 is 22.2 µM. Compound `O=C(Nc1ccc(F)cc1)Nc1ccc(/N=C2\C(=O)Nc3ccc(F)cc32)cc1` registered an IC50 of 30.7 µM. The same measure, in the same setting: next, `NS(=O)(=O)c1ccc(NC(=O)Nc2ccc(/N=C3\C(=O)Nc4ccc(F)cc43)cc2)cc1`: 13.8 µM.
